According to PubChem BioAssay (NCI):
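GI50 is the concentration that inhibits growth by half. TGI denotes the concentration required for complete inhibition of growth.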

Experiments:
Assay in all cases: NCI-60 cell line screen, 384-well format
PC-3 prostate = test system: PC-3 prostate
UACC-257 melanoma = test system: UACC-257 melanoma
CCRF-CEM leukemia = test system: CCRF-CEM leukemia
RPMI-8226 leukemia = test system: RPMI-8226 leukemia
OVCAR-4 ovarian = test system: OVCAR-4 ovarian
SN12C renal = test system: SN12C renal
M14 melanoma = test system: M14 melanoma
HCT-116 colon = test system: HCT-116 colon
NCI-H23 lung = test system: NCI-H23 lung
KM12 colon = test system: KM12 colon
MDA-MB-468 breast = test system: MDA-MB-468 breast
MCF7 breast = test system: MCF7 breast
BT-549 breast = test system: BT-549 breast
NCI-H226 lung = test system: NCI-H226 lung
SK-MEL-5 melanoma = test system: SK-MEL-5 melanoma
SW-620 colon = test system: SW-620 colon
COLO 205 colon = test system: COLO 205 colon
HCT-15 colon = test system: HCT-15 colon
MALME-3M melanoma = test system: MALME-3M melanoma
HS 578T breast = test system: HS 578T breast
T-47D breast = test system: T-47D breast
SR leukemia = test system: SR leukemia
SF-539 CNS = test system: SF-539 CNS
A498 renal = test system: A498 renal
HOP-62 NSCLC = test system: HOP-62 NSCLC
UO-31 renal = test system: UO-31 renal
EKVX NSCLC = test system: EKVX NSCLC
HCC-2998 colon = test system: HCC-2998 colon
ACHN renal = test system: ACHN renal
NCI-H322M lung = test system: NCI-H322M lung
SK-MEL-28 melanoma = test system: SK-MEL-28 melanoma
MDA-MB-231 breast = test system: MDA-MB-231 breast
NCI-H460 NSCLC = test system: NCI-H460 NSCLC
TK-10 renal = test system: TK-10 renal
OVCAR-5 ovarian = test system: OVCAR-5 ovarian
CAKI-1 renal = test system: CAKI-1 renal
SK-MEL-2 melanoma = test system: SK-MEL-2 melanoma
UACC-62 melanoma = test system: UACC-62 melanoma
MDA-MB-435 melanoma = test system: MDA-MB-435 melanoma
HT29 colon = test system: HT29 colon
SNB-19 CNS = test system: SNB-19 CNS
SF-268 CNS = test system: SF-268 CNS
SF-295 CNS = test system: SF-295 CNS
OVCAR-3 ovarian = test system: OVCAR-3 ovarian
A549 NSCLC = test system: A549 NSCLC
OVCAR-8 ovarian = test system: OVCAR-8 ovarian
HL-60(TB) leukemia = test system: HL-60(TB) leukemia

For CC(C)[C@](O)(c1ccc2cc(OC(F)F)c(OC(F)F)cc2c1)c1cn[nH]n1, the GI50 (PC-3 prostate) was 15.9 µM, the TGI (PC-3 prostate) was 30.3 µM and the GI50 (UACC-257 melanoma) was 16.5 µM. It also gave a TGI (UACC-257 melanoma) of 30.6 µM, a GI50 (CCRF-CEM leukemia) of 12.3 µM and a TGI (CCRF-CEM leukemia) of 24.8 µM. It also gave a GI50 (RPMI-8226 leukemia) of 9.27 µM, a TGI (RPMI-8226 leukemia) of 22.5 µM and a GI50 (OVCAR-4 ovarian) of 13.6 µM. For the same molecule, the TGI (OVCAR-4 ovarian) was 33.1 µM, the GI50 (SN12C renal) was 14.9 µM and the TGI (SN12C renal) was 28.2 µM. It also gave a GI50 (M14 melanoma) of 17.6 µM, a TGI (M14 melanoma) of 31.6 µM and a GI50 (HCT-116 colon) of 13.6 µM. For the same molecule, the TGI (HCT-116 colon) was 26.9 µM, the GI50 (NCI-H23 lung) was 14.8 µM and the TGI (NCI-H23 lung) was 29.6 µM. For the same molecule, the GI50 (KM12 colon) was 15 µM, the TGI (KM12 colon) was 28.6 µM and the GI50 (MDA-MB-468 breast) was 10.3 µM. The TGI (MDA-MB-468 breast) was 27.7 µM, the GI50 (MCF7 breast) was 13 µM and the TGI (MCF7 breast) was 27.5 µM. The GI50 (BT-549 breast) was 14.6 µM, the TGI (BT-549 breast) was 27.9 µM and the GI50 (NCI-H226 lung) was 21 µM. For the same molecule, the TGI (NCI-H226 lung) was 36 µM, the GI50 (SK-MEL-5 melanoma) was 13.1 µM and the TGI (SK-MEL-5 melanoma) was 25.9 µM. The GI50 (SW-620 colon) was 15.2 µM, the TGI (SW-620 colon) was 28.8 µM and the GI50 (COLO 205 colon) was 20.3 µM. The TGI (COLO 205 colon) was 39.9 µM, the GI50 (HCT-15 colon) was 14.4 µM and the TGI (HCT-15 colon) was 27.8 µM. The GI50 (MALME-3M melanoma) was 16.7 µM, the TGI (MALME-3M melanoma) was 30.9 µM and the GI50 (HS 578T breast) was 12.3 µM. It also gave a TGI (HS 578T breast) of 24.8 µM, a GI50 (T-47D breast) of 10.9 µM and a TGI (T-47D breast) of 38.2 µM. It also gave a GI50 (SR leukemia) of 3.91 µM, a TGI (SR leukemia) of 13.6 µM and a GI50 (SF-539 CNS) of 16.8 µM. For the same molecule, the TGI (SF-539 CNS) was 30.5 µM, the GI50 (A498 renal) was 17.5 µM and the TGI (A498 renal) was 31.8 µM. For the same molecule, the GI50 (HOP-62 NSCLC) was 16.3 µM, the TGI (HOP-62 NSCLC) was 30 µM and the GI50 (UO-31 renal) was 16.6 µM. For the same molecule, the TGI (UO-31 renal) was 30.4 µM, the GI50 (EKVX NSCLC) was 13.1 µM and the TGI (EKVX NSCLC) was 28.8 µM. The GI50 (HCC-2998 colon) was 15.4 µM, the TGI (HCC-2998 colon) was 28.9 µM and the GI50 (ACHN renal) was 25.5 µM. It also gave a TGI (ACHN renal) of 59.8 µM, a GI50 (NCI-H322M lung) of 17.3 µM and a TGI (NCI-H322M lung) of 33 µM. For the same molecule, the GI50 (SK-MEL-28 melanoma) was 17.2 µM, the TGI (SK-MEL-28 melanoma) was 31.5 µM and the GI50 (MDA-MB-231 breast) was 13.2 µM. It also gave a TGI (MDA-MB-231 breast) of 26.3 µM, a GI50 (NCI-H460 NSCLC) of 16.6 µM and a TGI (NCI-H460 NSCLC) of 30.5 µM. It also gave a GI50 (TK-10 renal) of 14.7 µM, a TGI (TK-10 renal) of 30.2 µM and a GI50 (OVCAR-5 ovarian) of 17.3 µM. For the same molecule, the TGI (OVCAR-5 ovarian) was 38.2 µM, the GI50 (CAKI-1 renal) was 15.7 µM and the TGI (CAKI-1 renal) was 32.3 µM. For the same molecule, the GI50 (SK-MEL-2 melanoma) was 19.4 µM, the TGI (SK-MEL-2 melanoma) was 33.5 µM and the GI50 (UACC-62 melanoma) was 16.4 µM. It also gave a TGI (UACC-62 melanoma) of 30 µM, a GI50 (MDA-MB-435 melanoma) of 16.9 µM and a TGI (MDA-MB-435 melanoma) of 31.3 µM. The GI50 (HT29 colon) was 16 µM, the TGI (HT29 colon) was 29.8 µM and the GI50 (SNB-19 CNS) was 17.8 µM. It also gave a TGI (SNB-19 CNS) of 32.2 µM, a GI50 (SF-268 CNS) of 16.5 µM and a TGI (SF-268 CNS) of 30.6 µM. For the same molecule, the GI50 (SF-295 CNS) was 15 µM, the TGI (SF-295 CNS) was 28.7 µM and the GI50 (OVCAR-3 ovarian) was 13 µM. The TGI (OVCAR-3 ovarian) was 25.8 µM, the GI50 (A549 NSCLC) was 17.4 µM and the TGI (A549 NSCLC) was 44.8 µM. The GI50 (OVCAR-8 ovarian) was 16.3 µM, the TGI (OVCAR-8 ovarian) was 30 µM and the GI50 (HL-60(TB) leukemia) was 6.11 µM. It also gave a TGI (HL-60(TB) leukemia) of 16.1 µM.
